pIC50: −log10 of the molar value.
Key:
FLT3 kinase = molecular target: T1, FLT3 kinase (Homo sapiens, UniProt P36888); assay: FLT3 kinase assay (AlphaScreen); format: biochemical; conditions: read-out: Ranking of IC50 values, FLT3
T1 construct: purchased SignalChem
T1 sequence (P36888 27-993): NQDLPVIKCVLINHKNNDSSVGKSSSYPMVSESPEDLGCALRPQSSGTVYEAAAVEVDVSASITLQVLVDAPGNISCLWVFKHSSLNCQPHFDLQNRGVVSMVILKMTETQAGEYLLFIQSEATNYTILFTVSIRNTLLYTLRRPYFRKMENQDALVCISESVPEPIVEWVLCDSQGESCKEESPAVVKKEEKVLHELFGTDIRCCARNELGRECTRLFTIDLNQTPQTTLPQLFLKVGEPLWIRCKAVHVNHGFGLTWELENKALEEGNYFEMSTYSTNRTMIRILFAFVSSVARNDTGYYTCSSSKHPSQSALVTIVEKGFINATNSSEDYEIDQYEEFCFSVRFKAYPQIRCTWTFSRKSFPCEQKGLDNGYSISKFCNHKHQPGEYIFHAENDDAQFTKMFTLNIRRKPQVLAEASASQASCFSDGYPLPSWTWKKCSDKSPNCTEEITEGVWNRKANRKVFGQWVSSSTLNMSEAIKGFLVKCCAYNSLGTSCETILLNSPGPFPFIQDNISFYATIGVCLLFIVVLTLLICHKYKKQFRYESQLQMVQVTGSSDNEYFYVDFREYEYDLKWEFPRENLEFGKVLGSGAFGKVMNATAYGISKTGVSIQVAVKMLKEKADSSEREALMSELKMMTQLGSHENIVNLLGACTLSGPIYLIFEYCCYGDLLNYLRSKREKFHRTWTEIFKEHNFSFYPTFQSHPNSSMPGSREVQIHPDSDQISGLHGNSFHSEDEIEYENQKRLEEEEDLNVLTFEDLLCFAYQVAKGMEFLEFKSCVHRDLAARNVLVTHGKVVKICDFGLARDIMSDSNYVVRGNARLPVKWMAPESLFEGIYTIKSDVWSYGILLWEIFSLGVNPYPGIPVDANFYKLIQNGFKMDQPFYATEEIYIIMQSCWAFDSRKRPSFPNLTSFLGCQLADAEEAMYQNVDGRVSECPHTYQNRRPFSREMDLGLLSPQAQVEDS
Procedure, shortened: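 AlphaScreen detection of biotin-poly(Glu4:Tyr1) phosphorylation by 1.5 ng recombinant FLT3 (10 μM ATP, pH 7.0 MOPS, 10 mM MgCl2; 30 °C, 30 min, EDTA quench). IC50 values derived from serially diluted compound tested in duplicate.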

[1] = test system: Molm-14 human acute myeloid leukemia cell with FLT3-ITD mutation; assay: Molm-14 cell proliferation assay (CellTiter 96); format: cell-based; conditions: Homo sapiens; Molm-14 cells, 72 hours treatment, CellTiter96; read-out: anti-proliferation activity Molm-14 (FLT3-ITD), IC50 ranking
Procedure, shortened: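 Molm-14 (FLT3-ITD AML) cells in RPMI 1640 with 10% heat-inactivated FBS were seeded at 25000 cells/well, incubated overnight at 37° C, 5% CO2, then treated with increasing compound concentrations for 72 hours. Viability was read as absorbance at 490 nm after 2˜4 hours with CellTiter96 AQueous One reagent.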

pIC50 (FLT3 kinase) | pIC50 [1] | Compound
8.00 to 9.00 | 6.52 to 7.00 | COc1ccc(-c2cc3c(s2)Cc2c(-c4ccc5cnn(C)c5c4)n[nH]c2-3)cn1 [Compound 4, 6-(6-methoxypyridin-3-yl)-3-(1-methyl-1H-indazol-6-yl)-1,4-dihydrothieno [2′,3′:4,5]cyclopenta[1,2-c] pyrazole]
8.00 to 9.00 | 6.00 to 6.52 | Cc1n[nH]c2cc(-c3n[nH]c4c3Cc3sc(-c5ccc(CN6CCOCC6)cc5)cc3-4)ccc12 [Compound 81, 4-(4-(3-(3-methyl-1H-indazol-6-yl)-1,4-dihydro-thieno[2′,3′:4,5]cyclopenta [1,2-c]pyrazol-6-yl)benzyl)morpholine]
8.00 to 9.00 | 6.00 to 6.52 | Cn1ncc2ccc(-c3n[nH]c4c3Cc3sc(-c5ccc(N6CCOCC6)nc5)cc3-4)cc21 [Compound 82, 4-(5-(3-(1-methyl-1H-indazol-6-yl)-1,4-dihydro-thieno[2′,3′:4,5]cyclopenta [1,2-c]pyrazol-6-yl)pyridin-2-yl)morpholine]
> 9.00 | 6.00 to 6.52 | CN1CCN(c2ccc(-c3cc4c(s3)Cc3c(-c5ccc6cnn(C)c6c5)n[nH]c3-4)cn2)CC1 [Compound 85, 3-(1-methyl-1H-indazol-6-yl)-6-(6-(4-methyl-piperazin-1-yl)pyridin-3-yl)-1,4-dihydrothieno [2′,3′:4,5]cyclopenta [1,2-c]pyrazole]
8.00 to 9.00 | 6.52 to 7.00 | Cn1ncc2ccc(-c3n[nH]c4c3Cc3sc(-c5ccnc(Cl)c5)cc3-4)cc21 [Compound 86, 6-(2-chloropyridin-4-yl)-3-(1-methyl-1H-indazol-6-yl)-1,4-dihydrothieno [2′,3′:4,5]cyclopenta [1,2-c]pyrazole]
> 9.00 | 6.00 to 6.52 | CN1CCN(c2cc(-c3cc4c(s3)Cc3c(-c5ccc6cnn(C)c6c5)n[nH]c3-4)ccn2)CC1 [Compound 87, 3-(1-methyl-1H-indazol-6-yl)-6-(2-(4-methyl-piperazin-1-yl)pyridin-4-yl)-1,4-dihydrothieno [2′,3′:4,5]cyclopenta [1,2-c]pyrazole]
8.00 to 9.00 | 6.00 to 6.52 | Cn1ncc2ccc(-c3n[nH]c4c3Cc3sc(-c5ccc(CN6CCOCC6)c(F)c5F)cc3-4)cc21 [Compound 88, 4-(2,3-difluoro-4-(3-(1-methyl-1H-indazol-6-yl)-1,4-dihydrothieno [2′,3′:4,5]cyclopenta [1,2-c]pyrazol-6-yl)benzyl)morpholine]
8.00 to 9.00 | 6.00 to 6.52 | Cn1ncc2ccc(-c3n[nH]c4c3Cc3sc(-c5ccc(CN6CCOCC6)cc5OC(F)(F)F)cc3-4)cc21 [Compound 90, 4-(4-(3-(1-methyl-1H-indazol-6-yl)-1,4-dihydro-thieno[2′,3′:4,5]cyclopenta [1,2-c]pyrazol-6-yl)-3-(trifluoromethoxy)benzyl) morpholine]
8.00 to 9.00 | 6.52 to 7.00 | Cc1cc(CN2CCOCC2)ccc1-c1cc2c(s1)Cc1c(-c3ccc4cnn(C)c4c3)n[nH]c1-2 [Compound 91, 4-(3-methyl-4-(3-(1-methyl-1H-indazol-6-yl)-1,4-dihydrothieno [2′,3′:4,5]cyclopenta [1,2-c]pyrazol-6-yl)benzyl)morpholine]
8.00 to 9.00 | 6.52 to 7.00 | CN(C)Cc1ccc(-c2cc3c(s2)Cc2c(-c4ccc5cnn(C)c5c4)n[nH]c2-3)cn1 [Compound 93, N,N-dimethyl-1-(5-(3-(1-methyl-1H-indazol-6-yl)-1,4-dihydrothieno [2′,3′:4,5]cyclopenta [1,2-c]pyrazol-6-yl)pyridin-2-yl)methanamine]

Reference: patent publication US12448394B2, “Heterocyclic pyrazole derivatives as type III receptor tyrosine kinase inhibitors” (DEVELOPMENT CENTER FOR BIOTECHNOLOGY, priority 2019, dated 2025)
